From patent US8268848B2, “Cyclopropane compound” (Eisai R&D Management Co., Ltd., priority 2010, dated 2012) come the findings set out here.

pIC50: −log10 of the molar value. Like-named read-outs stand apart in the source and are kept apart here.

One may read the pIC50 as the IC50 on a negative log10 scale, so that one unit is a factor of ten. As usually defined, the IC50 is the concentration that inhibits the measured activity by half.

For experiment [1], the target named is T1, OX1 (Homo sapiens, UniProt O43613).
T1 sequence (O43613 1-425): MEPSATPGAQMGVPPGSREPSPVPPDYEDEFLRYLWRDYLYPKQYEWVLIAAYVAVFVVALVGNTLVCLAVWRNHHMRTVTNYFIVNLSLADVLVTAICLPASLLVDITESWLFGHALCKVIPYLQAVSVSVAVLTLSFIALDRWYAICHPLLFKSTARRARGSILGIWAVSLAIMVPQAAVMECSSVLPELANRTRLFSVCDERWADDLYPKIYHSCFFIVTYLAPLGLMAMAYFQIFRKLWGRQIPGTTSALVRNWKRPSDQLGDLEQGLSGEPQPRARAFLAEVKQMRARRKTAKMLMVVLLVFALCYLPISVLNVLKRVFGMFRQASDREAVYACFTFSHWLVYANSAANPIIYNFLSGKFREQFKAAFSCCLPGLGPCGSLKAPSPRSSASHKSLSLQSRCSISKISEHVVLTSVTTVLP
The experiment is described as follows: Measurement of orexin receptor-binding ability ([125I]-OX-A, cell membranes, OX1). Also noted: expressed in transfected cells; host or cells: CHO cells (membrane preparation).

Experiment [2] addresses T2, OX2 (Homo sapiens, UniProt O43614).
T2 sequence (O43614 1-444): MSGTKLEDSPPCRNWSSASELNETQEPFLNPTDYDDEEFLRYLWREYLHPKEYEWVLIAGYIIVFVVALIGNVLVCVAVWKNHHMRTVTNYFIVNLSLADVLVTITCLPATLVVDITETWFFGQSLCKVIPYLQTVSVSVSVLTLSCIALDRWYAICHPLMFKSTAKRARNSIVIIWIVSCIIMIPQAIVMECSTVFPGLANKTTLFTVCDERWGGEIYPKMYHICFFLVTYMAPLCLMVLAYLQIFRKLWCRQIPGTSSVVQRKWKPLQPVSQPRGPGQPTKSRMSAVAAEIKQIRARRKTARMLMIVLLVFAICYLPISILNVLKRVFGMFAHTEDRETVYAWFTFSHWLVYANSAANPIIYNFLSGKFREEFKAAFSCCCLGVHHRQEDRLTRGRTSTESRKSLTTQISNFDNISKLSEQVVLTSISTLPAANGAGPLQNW
Briefly: Measurement of orexin receptor-binding ability ([125I]-OX-A, cell membranes, OX2). Also on record: expressed in transfected cells; host or cells: CHO cells (membrane preparation). The settings on record: membranes of recombinant CHO cells expressing OX2, 0.2 nM [125I]-OX-A; for pIC50: read-out: OX2 (IC50); for IC50: OX2 (IC50) nM.

Where [3] appears, read: membranes of recombinant CHO cells expressing OX1, 0.2 nM [125I]-OX-A, read-out: OX1 (IC50).

Consider `COCc1nc(C)ncc1OC[C@@]1(c2cccc(F)c2)C[C@H]1C(=O)Nc1cccc(F)c1` [Example 195, (1R,2S)-N,2-bis(3-fluorophenyl)-2-{[(4-methoxymethyl-2-methylpyrimidin-5-yl)oxy]methyl}cyclopropanecarboxamide], for which the negative logarithm of the IC50 (pIC50) in experiment [1] (setting [3]) is 8.22; in experiment [2], 8.52.
Taken in the same sequence, the figures for `COCc1nc(C)ncc1OC[C@@]1(c2cccc(F)c2)C[C@H]1C(=O)Nc1ccc(F)cc1F` [Example 196, (1R,2S)-N-(2,4-difluorophenyl)-2-(3-fluorophenyl)-2-{[(4-methoxymethyl-2-methylpyrimidin-5-yl)oxy]methyl}cyclopropanecarboxamide] were 8.05 and 8.40.
In turn, `COCc1nc(C)ncc1OC[C@@]1(c2cccc(F)c2)C[C@H]1C(=O)Nc1ccc(Cl)cn1` [Example 198, (1R,2S)-N-(5-chloropyridin-2-yl)-2-(3-fluorophenyl)-2-{[(4-methoxymethyl-2-methylpyrimidin-5-yl)oxy]methyl}cyclopropanecarboxamide] showed a pIC50 in experiment [1] of 8.30. Moreover, the IC50 in experiment [2] was found to be 4 nM.
In experiment [1], `COCc1nc(C)ncc1OC[C@@]1(c2cccc(F)c2)C[C@H]1C(=O)Nc1ccc(C#N)cn1` [Example 200] had a pIC50 of 7.17. Also, the concentration for half-maximal inhibition (IC50) in experiment [2] amounted to 12 nM.
`COCc1nc(C)ncc1OC[C@@]1(c2cccc(F)c2)C[C@H]1C(=O)Nc1ccc(C(F)(F)F)cn1` [Example 201, (1R,2S)-2-(3-fluorophenyl)-2-{[(4-methoxymethyl-2-methylpyrimidin-5-yl)oxy]methyl}-N-[5-(trifluoromethyl)pyridin-2-yl]cyclopropanecarboxamide]: the pIC50 in experiment [1] is 8.30. Also, the IC50 in experiment [2] is 4 nM.
Taken in the same sequence, the figures for `COCc1nc(C)ncc1OC[C@@]1(c2ccc(F)cc2)C[C@H]1C(=O)Nc1ccc(F)cn1` [Example 202, (1R,2S)-2-(4-fluorophenyl)-N-(5-fluoropyridin-2-yl)-2-{[(4-methoxymethyl-2-methylpyrimidin-5-yl)oxy]methyl}cyclopropanecarboxamide] were 7.85 and 2 nM.
For the molecule `COCc1nc(C)ncc1OC[C@@]1(c2ccc(F)cc2)C[C@H]1C(=O)Nc1ccc(F)cc1` [Example 203, (1R,2S)-N,2-bis(4-fluorophenyl)-2-{[(4-methoxymethyl-2-methylpyrimidin-5-yl)oxy]methyl}cyclopropanecarboxamide], the pIC50 was 6.67 in experiment [1] (setting [3]) and 8.10 in experiment [2].
Consider `COCc1nc(C)ncc1OC[C@@]1(c2ccc(F)cc2)C[C@H]1C(=O)Nc1ccc(Cl)cn1` [Example 204, (1R,2S)-N-(5-chloropyridin-2-yl)-2-(4-fluorophenyl)-2-{[(4-methoxymethyl-2-methylpyrimidin-5-yl)oxy]methyl}cyclopropanecarboxamide], for which the pIC50 in experiment [1] (setting [3]) is 7.66; in experiment [2] it was 8.30.
`COCc1nc(C)ncc1OC[C@@]1(c2ccc(F)cc2)C[C@H]1C(=O)Nc1cc(C)c(F)cn1` [Example 205, (1R,2S)-N-(5-fluoro-4-methylpyridin-2-yl)-2-(4-fluorophenyl)-2-{[(4-methoxymethyl-2-methylpyrimidin-5-yl)oxy]methyl}cyclopropanecarboxamide] showed a pIC50 in experiment [1] of 8.05. Further, the IC50 in experiment [2] was found to be 6 nM.
With `COCc1nc(C)ncc1OC[C@@]1(c2ccc(F)cc2)C[C@H]1C(=O)Nc1ccc(F)c(F)c1` [Example 207, (1R,2S)-N-(3,4-difluorophenyl)-2-(4-fluorophenyl)-2-{[(4-methoxymethyl-2-methylpyrimidin-5-yl)oxy]methyl}cyclopropanecarboxamide], the pIC50 is 6.96 in experiment [1] (setting [3]) and 8.05 in experiment [2].
`COCc1nc(C)ncc1OC[C@@]1(c2ccc(F)c(F)c2)C[C@H]1C(=O)Nc1ccccn1` [Example 211, (1R,2S)-2-(3,4-difluorophenyl)-2-{[(4-methoxymethyl-2-methylpyrimidin-5-yl)oxy]methyl}-N-(pyridin-2-yl)cyclopropanecarboxamide] had a pIC50 in experiment [1] of 7.70. In addition, the IC50 in experiment [2] was determined as 4 nM.
With `COCc1nc(C)ncc1OC[C@@]1(c2ccc(F)c(F)c2)C[C@H]1C(=O)Nc1cc(C)c(F)cn1` [Example 212, (1R,2S)-2-(3,4-difluorophenyl)-N-(5-fluoro-4-methylpyridin-2-yl)-2-{[(4-methoxymethyl-2-methylpyrimidin-5-yl)oxy]methyl}cyclopropanecarboxamide], the results for the negative-log IC50 (pIC50) in experiment [1] (setting [3]) and in experiment [2] were 8.40 and 8.15, respectively.
For the molecule `COCc1nc(C)ncc1OC[C@@]1(c2ccc(F)c(F)c2)C[C@H]1C(=O)Nc1ccc(F)cc1` [Example 213], the results for the pIC50 in experiment [1] (setting [3]) and in experiment [2] were 7.85 and 7.96, respectively.
As for `COCc1nc(C)ncc1OC[C@@]1(c2cc(F)cc(F)c2)C[C@H]1C(=O)Nc1ccccn1` [Example 218, (1R,2S)-2-(3,5-difluorophenyl)-2-{[(4-methoxymethyl-2-methylpyrimidin-5-yl)oxy]methyl}-N-(pyridin-2-yl)cyclopropanecarboxamide], the negative logarithm of the IC50 (pIC50) was 8.00 in experiment [1] (setting [3]) and 8.52 in experiment [2].
For `COCc1nc(C)ncc1OC[C@@]1(c2cc(F)cc(F)c2)C[C@H]1C(=O)Nc1ccc(F)cc1` [Example 219, (1R,2S)-2-(3,5-difluorophenyl)-N-(4-fluorophenyl)-2-{[(4-methoxymethyl-2-methylpyrimidin-5-yl)oxy]methyl}cyclopropanecarboxamide] the same measures were 8.00 and 8.52.
Take `COCc1nc(C)ncc1OC[C@@]1(c2cc(F)cc(F)c2)C[C@H]1C(=O)Nc1ccc(F)c(F)c1` [Example 221, (1R,2S)-N-(3,4-difluorophenyl)-2-(3,5-difluorophenyl)-2-{[(4-methoxymethyl-2-methylpyrimidin-5-yl)oxy]methyl}cyclopropanecarboxamide]: the pIC50 in experiment [1] (setting [3]) was above 8.70; in experiment [2] it was 8.52.
Regarding `COCc1nc(C)ncc1OC[C@@]1(c2cccc(Cl)c2)C[C@H]1C(=O)Nc1ccccn1` [Example 225, (1R,2S)-2-(3-chlorophenyl)-2-{[(4-methoxymethyl-2-methylpyrimidin-5-yl)oxy]methyl}-N-(pyridin-2-yl)cyclopropanecarboxamide], the pIC50 in experiment [1] (setting [3]) is 8.22; in experiment [2] it was 8.52.
`COCCc1nc(C)ncc1OC[C@@]1(c2cccc(F)c2)C[C@H]1C(=O)Nc1cc(C)c(F)cn1` [Example 229, (1R,2S)-N-(5-fluoro-4-methylpyridin-2-yl)-2-(3-fluorophenyl)-2-{[(4-methoxyethyl-2-methylpyrimidin-5-yl)oxy]methyl}cyclopropanecarboxamide] had a pIC50 in experiment [1] of 7.72. Further, in experiment [2], the half-maximal inhibitory concentration (IC50) came out at 4 nM.
For `COCc1nc(C)ncc1OC[C@@]1(c2cc(F)cc(OC)c2)C[C@H]1C(=O)Nc1ccc(F)c(F)c1` [Example 232, (1R,2S)-N-(3,4-difluorophenyl)-2-(3-fluoro-5-methoxyphenyl)-2-{[(4-methoxymethyl-2-methylpyrimidin-5-yl)oxy]methyl}cyclopropanecarboxamide], the pIC50 was 9.00 in experiment [1] (setting [3]) and 8.52 in experiment [2].
For `COCc1nc(C)ncc1OC[C@@]1(c2cc(F)cc(OC)c2)C[C@H]1C(=O)Nc1cc(C)c(F)cn1` [Example 234, (1R,2S)-2-(3-fluoro-5-methoxyphenyl)-N-(5-fluoro-4-methylpyridin-2-yl)-2-{[(4-methoxymethyl-2-methylpyrimidin-5-yl)oxy]methyl}cyclopropanecarboxamide] the same measures were above 8.70 and 8.40.
For the molecule `COCc1nc(C)ncc1OC[C@@]1(c2cc(F)cc(OC)c2)C[C@H]1C(=O)Nc1cccc(F)c1` [Example 236, (1R,2S)-2-(3-fluoro-5-methoxyphenyl)-N-(3-fluorophenyl)-2-{[(4-methoxymethyl-2-methylpyrimidin-5-yl)oxy]methyl}cyclopropanecarboxamide], in experiment [1], the pIC50 was 7.68. For the same molecule, the IC50 in experiment [2] was 5 nM.
For `CCc1nc(C)ncc1OC[C@@]1(c2cccc(F)c2)C[C@H]1C(=O)Nc1ccc(F)cn1` [Example 241, (1R,2S)-2-{[(4-ethyl-2-methylpyrimidin-5-yl)oxy]methyl}-2-(3-fluorophenyl)-N-(5-fluoropyridin-2-yl)cyclopropanecarboxamide] the same measures were 8.70 and 2.2 nM.
